The values below come from patent publication US12606552B2, “Bifunctional compound, preparation method therefor, and use thereof” (SUZHOU KINTOR PHARMACEUTICALS, INC., priority 2020, dated 2026).

For experiment [1], the system named is flank sebaceous glands of golden hamster. The experiment can be described thus: In vivo efficacy on acne in female golden hamsters (growth of sebaceous plaques induced by testosterone propionate). Particulars: for The inhibition rate of the growth of sebaceous plaques (%): 400 μg (1.6%) + testosterone propionate 12 μg, skin smear once a day, 21 days. From the text: Activity Assay Example 7: In Vivo Efficacy of Compounds on Acne in Female Golden Hamsters
1. Test object: The flank sebaceous glands of golden hamster are androgen-dependent organs, and testosterone propionate (male hormone) promotes the enlargement of sebaceous glands. This experiment is mainly to study the inhibitory effect of CB-03-01 (positive drug), Flutamide (positive drug) and the compound on sebaceous gland enlargement in female golden hamster acne model (androgen dependence), to further observe the in vivo drug efficacy of the compound, to provide the basis for clinical trials of androgen-induced acne symptoms.
Androgen (Testosterone Propionate-TP); CB-03-01 (Clascoterone, CAS No. 19608-29-8); □ Flutamide (Flutamide, CAS No. 13311-84-7); compound A46 of the present invention.
2.2 Experimental Animals, See Table 4 for Details
2.3 Administration Vehicle: Acetone. 3. Experimental Design
In this experiment, from 72 female golden hamsters, according to the size and body weight of sebaceous glands, golden hamsters were evenly distributed to each group, 6 mice per group, a total of 7 groups, and they were administered continuously for 21 days.
According to the protocol in the table, […] of drug was administered each time, it was evenly smeared on the sebaceous glands, and administered once a day.
Animal grouping and status observation: Before grouping, the body weight was weighed, and the sebaceous glands on both sides were shaved for the observation of the size of sebaceous glands. Animals were observed twice a day in the morning and afternoon during the administration period. On the 21st day after administration, the size of sebaceous glands and the body weight of animals were observed and recorded.
The size of the sebaceous glands is expressed by the area, and the vernier caliper recorded its long side (a) and short side (b), and the area of the sebaceous glands (S) is obtained from the formula for calculating the area of a rectangle. In model group and administration group, ΔS=S−S(vehicle). Growth inhibition rate (%)=(ΔS(acetone testosterone group)−ΔS (administration group))/ΔS(acetone testosterone group)*100%.

The test system of experiment [2] is androgenetic alopecia model in C57BL/6J mice. The experiment can be described thus: Hair regeneration effects on androgenic alopecia C57 mouse model (DHT-induced). The class given is in vivo, C57BL/6N mice. Particulars: AVER n = 6, score 0-5. The text has this: Activity Assay Example 8: Hair Regeneration Effects of Compounds on Androgenic Alopecia C57 Mouse Model
The purpose of this study was to compare the effect of the compounds prepared by the present invention as AR protein degraders on hair regrowth in an androgenetic alopecia model in C57BL/6J mice by transdermal application route of administration, and to provide data to support subsequent clinical trials.
2. Experimental Principle
Name of test compound I: dihydrotestosterone DHT; name of test compound II: compound A46 of the present invention; name of test compound III: minoxidil.
4. Experimental animals: strain: C57BL/6N mice; age: 6-7 weeks; gender: male; number of animals: 70 (10 for later use); rearing environment: specific pathogen-free (SPF).
70 mice were deeply anesthetized, and the hair on the back of the mice was removed with an animal shaver, then the depilatory cream (Veet https://item.jd.com/6291245.html) was smeared evenly on the surface of the mice skin, and left 7-10 minutes. Then the hair was gently scraped off with a hair removal scraper against the direction of the hair, and finally the residual hair removal cream on the skin surface was fully washed with water to avoid burning the mice skin.
This experiment was divided into 6 groups, and the DHT administration started on the day of hair removal, A46 is administered on day 2 after hair removal and is counted as day 1 (the day of hair removal is counted as day 0).
5.3 Test Compound Preparation Method
5.4 Observation and Measurement Indicators • 1) Body weight/g: From the first day of administration, body weight was weighed and recorded twice a week. • 2) Hair regeneration (anagen) score (0 points: no darkening of skin color in all areas; 1 point: darkening of gray skin color areas; 2 points: visible short hair; 3 points: thin hair; 4 points: thick hair; 5 points: full hair growth).
All mice were photographed on day 1 after hair removal, and then photographed and scored daily from day 4 until the end of the experiment. • 3) At the end of the experiment, skin and blood collection operations were performed as needed. 5.5 Criteria for Drug Withdrawal and Experiment Termination
Data are presented as average±standard error (AVE±SEM). One-way multi-level analysis of variance was used for statistics. The comparison between each drug group and the model group was performed by Stundent's t-test or rank sum test, and the p value was calculated. p<0.05 means there is a significant difference between the two groups, p<0.01 means there is a extremely significant difference between the two groups.

For experiment [3], the system named is LNCaP (human prostate cancer). The experiment in a line: Hormone-dependent prostate cancer long-term efficacy test (LNCaP xenograft, tumor growth inhibition). It counts as in vivo, SCID nude mice. How it is done: Activity Assay Example 5: Hormone-Dependent Prostate Cancer Long-Term Efficacy Test
1. Tumor Model Establishment
1.5*10^7 LNCaP (human prostate cancer) was purchased from the Chinese Academy of Sciences Cell Bank and cultured in RPMI-1640 medium containing 10% fetal bovine serum. The cells were grown to 80-90% confluence and passaged in about 4-5 days, and the cells were grown to a sufficient amount and then inoculated into nude mice.
18-20 g SCID nude mice aged 6-7 weeks old were purchased from Beijing Vital River Co., Ltd. Mice were kept in SPF animal room, in which the temperature was 20-25° C., and the humidity was 40%-70%, and light/dark was 12 hours a day respectively. Animals were kept in separate cages, 5 per cage, with free access to food and water, in which the feed was sterilized by irradiation, and the water was autoclaved. The mice were grouped for experiment when raised to 10˜11 weeks old. LNCaP tumor cells were directly inoculated into the right back of nude mice.
3. Grouping and Administration Schedule Design
When the average tumor volume reached 200-300 mm^3, the tumors with good shape were selected for random number grouping according to the tumor volume, and the selected animals were marked and divided into 5 groups, 5 per group. Administration vehicle: 5% EtOH, 5% solutolHS15 in PBS. The corresponding dose of compound was administered by gavage.
Data are presented as mean±standard deviation (Mean±SD). One-way multi-level analysis of variance was used for statistics, and the comparison between each drug group and the model group was performed by Stundent's t-test or rank sum test, and the p value was calculated. p<0.05 means there is a significant difference between the two groups.

Another experiment concerns the target T1, AR (Homo sapiens, UniProt P10275, T878A).
T1 sequence (P10275 1-920 T878A): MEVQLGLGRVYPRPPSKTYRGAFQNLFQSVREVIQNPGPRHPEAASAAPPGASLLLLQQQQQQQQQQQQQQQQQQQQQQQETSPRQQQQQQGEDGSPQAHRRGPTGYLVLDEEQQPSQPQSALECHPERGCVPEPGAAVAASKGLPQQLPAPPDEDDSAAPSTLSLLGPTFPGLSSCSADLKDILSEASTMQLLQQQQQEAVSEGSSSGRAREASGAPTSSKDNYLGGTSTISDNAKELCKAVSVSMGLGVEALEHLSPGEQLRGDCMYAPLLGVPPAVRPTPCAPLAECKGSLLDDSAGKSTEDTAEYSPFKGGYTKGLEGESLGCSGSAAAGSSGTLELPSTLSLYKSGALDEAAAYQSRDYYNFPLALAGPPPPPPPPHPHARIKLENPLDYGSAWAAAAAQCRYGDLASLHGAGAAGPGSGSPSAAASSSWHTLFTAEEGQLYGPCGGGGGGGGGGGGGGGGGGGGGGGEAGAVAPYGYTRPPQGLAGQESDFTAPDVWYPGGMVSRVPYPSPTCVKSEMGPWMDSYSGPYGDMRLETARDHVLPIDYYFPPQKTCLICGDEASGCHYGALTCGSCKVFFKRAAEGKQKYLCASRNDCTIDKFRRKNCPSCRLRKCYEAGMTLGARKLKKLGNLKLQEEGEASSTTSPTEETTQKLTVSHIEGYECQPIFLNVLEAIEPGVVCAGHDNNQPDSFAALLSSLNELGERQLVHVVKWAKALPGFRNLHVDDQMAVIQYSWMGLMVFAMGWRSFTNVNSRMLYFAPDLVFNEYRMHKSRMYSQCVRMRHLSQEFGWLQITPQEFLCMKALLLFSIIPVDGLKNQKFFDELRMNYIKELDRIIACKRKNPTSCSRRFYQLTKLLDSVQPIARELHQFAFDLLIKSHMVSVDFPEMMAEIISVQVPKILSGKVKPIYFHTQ
The experiment can be described thus: Effects of compounds on AR expression in LNCaP cells (ELISA, DC50). Also on record: Measurement of the Effects of Drugs on the Expression of AR in Cells by ELISA Method; endogenous in cells; host or cells: LNCaP. Particulars: 24 hours of drug treatment, AR by ELISA. It counts as cell-based. An outline of the steps:
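LNCaP cells at about 15,000/well were treated for 24 h with compound at 0.0001–2 μmol/L final. AR in cell lysates was measured by ELISA (OD450). Inhibition was relative to DMSO control after blank subtraction, and DC50 was calculated from it.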
(In general: An ELISA detects its analyte on a solid surface through an enzyme-linked reagent.)

In the case of `CCC(=O)O[C@]1(C(=O)CO)CC[C@H]2[C@@H]3CCC4=CC(=O)CC[C@]4(C)[C@H]3CC[C@@]21C` [CB-03-01, Clascoterone, reference compound], the “The inhibition rate of the growth of sebaceous plaques (%)” value in experiment [1] is 69.53%.
In the case of `CCC(=O)O[C@H]1CC[C@H]2[C@@H]3CCC4=CC(=O)CC[C@]4(C)[C@H]3CC[C@]12C` [testosterone propionate, reference compound], in experiment [1] (model group, 12 μg TP skin smear, after 21 days), the “area of sebaceous plaques” value was 40-50 mm^2.
In the case of `C[C@]12CCC(=O)C[C@@H]1CC[C@@H]1[C@@H]2CC[C@]2(C)[C@@H](O)CC[C@@H]12` [DHT, dihydrotestosterone, reference compound], the Hair regeneration score is 0.00 in experiment [2] (DHT 30 mpk subcutaneous alone (model), 0 day); 0.00 in experiment [2] (DHT 30 mpk subcutaneous alone (model), 3 days); 0.00 in experiment [2] (DHT 30 mpk subcutaneous alone (model), 5 days); 0.00 in experiment [2] (DHT 30 mpk subcutaneous alone (model), 7 days); 0.00 in experiment [2] (DHT 30 mpk subcutaneous alone (model), 10 days); 0.00 in experiment [2] (DHT 30 mpk subcutaneous alone (model), 12 days). The Hair regeneration score in experiment [2] (DHT 30 mpk subcutaneous alone (model), 14 days) is listed as 0.17; in experiment [2] (DHT 30 mpk subcutaneous alone (model), 17 days), 0.5.
In the case of `Nc1cc(N2CCCCC2)nc(N)[n+]1[O-]` [minoxidil, reference compound], the Hair regeneration score in experiment [2] (5% skin smear BID + DHT 30 mpk, 0 day) is 0.00; in experiment [2] (5% skin smear BID + DHT 30 mpk, 3 days), 0.00; in experiment [2] (5% skin smear BID + DHT 30 mpk, 5 days) it was 0.00; in experiment [2] (5% skin smear BID + DHT 30 mpk, 7 days) it was 0.00; in experiment [2] (5% skin smear BID + DHT 30 mpk, 10 days) it was 0.33; in experiment [2] (5% skin smear BID + DHT 30 mpk, 12 days), 0.67. Moreover, the Hair regeneration score in experiment [2] (5% skin smear BID + DHT 30 mpk, 14 days) came to 1.67; in experiment [2] (5% skin smear BID + DHT 30 mpk, 17 days), 2.33.
As for `Cc1ncsc1-c1ccc(CNC(=O)[C@@H]2C[C@@H](O)CN2C(=O)[C@@H](NC(=O)COCCCCOc2ccc(-c3ncc(N4C(=S)N(c5ccc(C#N)c(C(F)(F)F)c5F)C(=O)C4(C)C)cc3F)c(C(F)(F)F)c2)C(C)(C)C)cc1` [Compound A88], the “Tumor growth inhibition rate” value in experiment [3] (10 mpk by gavage, 3 days) came to 19.81%; in experiment [3] (10 mpk by gavage, 7 days) it was 38.44%; in experiment [3] (10 mpk by gavage, 10 days) it was 31.33%; in experiment [3] (10 mpk by gavage, 14 days) it was 13.15%; in experiment [3] (25 mpk by gavage, 3 days), 14.98%; in experiment [3] (25 mpk by gavage, 7 days) it was 36.36%. Moreover, the “Tumor growth inhibition rate” value in experiment [3] (25 mpk by gavage, 10 days) turned out to be 37.51%; in experiment [3] (25 mpk by gavage, 14 days), 24.68%; in experiment [3] (50 mpk by gavage, 3 days) it was 22.30%; in experiment [3] (50 mpk by gavage, 7 days) it was 51.85%; in experiment [3] (50 mpk by gavage, 10 days) it was 42.62%; in experiment [3] (50 mpk by gavage, 14 days), 24.47%. Also, at AR, the DC50 came to 55 nM.
Consider `CC(C)C(=O)Nc1ccc([N+](=O)[O-])c(C(F)(F)F)c1` [Flutamide, reference compound], for which, in experiment [1], the “The inhibition rate of the growth of sebaceous plaques (%)” value worked out at 40.74%.
